Measurements reported in patent publication US9453026B2, “ACC inhibitors and uses thereof” (Gilead Apollo, Inc., priority 2011, dated 2016).
Values after ≈ are worked out from the molar mass of the structure shown. Values joined by “and” are separate entries in the source; they are usually repeats but may differ in a detail not shown here. Equal values may be shown once. Read-outs that look alike come from different tables or passages of the source.

Tests used:
[1] = molecular target: ACC1 (Homo sapiens, UniProt Q13085); experiment: In vitro ACC1 inhibition assay (ADP-Glo); assay type: biochemical; settings: read-out: ACC1
Method in brief: (§1)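 Enzyme (human ACC1 or ACC2) and compound, serially diluted 1:3 over 11 points from a 600 uM DMSO stock, were preincubated 15 min before substrate addition.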

[2] = molecular target: ACC2 (Homo sapiens, UniProt O00763); experiment: In vitro ACC2 inhibition assay (ADP-Glo); assay type: biochemical; settings: read-out: ACC2
Method in brief: as §1

[3] = test system: C. albicans ATCC 90028; experiment: Anti-Fungal Activity Assay (broth microtiter MIC); assay type: cell-based; settings: 3 replicates, test compounds read at 48 h
Protocol: (§2) Compounds of the present invention were evaluated in an Anti-Fungal Activity Assay. An exemplary procedure for the assay, which measures the susceptibility of various Candida species to anti-fungal compounds, follows. Compounds to be tested (including fluconazole and amphotericin B) were dissolved in DMSO to obtain a solution having a concentration of 1 mg/mL. […] All species were grown from frozen stock by directly plating on to freshly prepared Sabouraud Dextrose agar (BD, Difco) and incubated overnight in ambient air at 35° C. for 24 h. A direct suspension was prepared in RPMI 1640+MOPS (Lonza, Biowhittaker) by taking individual colonies from the overnight cultures using sterile swabs soaked in sterile saline. The concentration of the suspension was determined using pre-determined standard curves. […] The original CLSI guidelines focused on reading Candida MICs after 48 h of incubation. As reading after only 24 h offers a clear advantage of patient care, QC limits are being established for all drugs at 24 h. That being said there are no known interpretive breakpoints for amphotericin B at 24 h and the current fluconazole interpretive breakpoints are based on a 48 h reading. The MIC breakpoints for the Pharmaron test compounds were recorded at 48 h, and for the soraphen the 24 h time-point was added. All MIC determinations were achieved by visually comparing the growth found in the antibiotic challenged wells to that of the growth control.

[4] = test system: C. krusei ATCC 6258; experiment: Anti-Fungal Activity Assay (broth microtiter MIC); assay type: cell-based; settings: 3 replicates, test compounds read at 48 h
Protocol: as §2

[5] = test system: C. parapsilosis ATCC 22019; experiment: Anti-Fungal Activity Assay (broth microtiter MIC); assay type: cell-based; settings: 3 replicates, test compounds read at 48 h
Protocol: as §2

[6] = test system: target protein (ACC); experiment: Thermal Shift Assay (TSA); assay type: binding; settings: FIG. 2
Excerpt: 103, 43, 15835-15840, the entirety of which is incorporated herein by reference.

[7] = test system: Candida species; experiment: Anti-Fungal Activity Assay, summary over Candida species; assay type: cell-based; settings: summary of Table 3
Protocol: as §2

[8] = Candida albicans, ATCC90028, 48 h, read-out: MIC
[9] = Pichia kudriavzevii, ATCC6258, 48 h, read-out: MIC
[10] = Lodderomyces parapsilosis, ATCC22019, 48 h, read-out: MIC

Sequence of ACC2 (O00763 whole entry, species assumed): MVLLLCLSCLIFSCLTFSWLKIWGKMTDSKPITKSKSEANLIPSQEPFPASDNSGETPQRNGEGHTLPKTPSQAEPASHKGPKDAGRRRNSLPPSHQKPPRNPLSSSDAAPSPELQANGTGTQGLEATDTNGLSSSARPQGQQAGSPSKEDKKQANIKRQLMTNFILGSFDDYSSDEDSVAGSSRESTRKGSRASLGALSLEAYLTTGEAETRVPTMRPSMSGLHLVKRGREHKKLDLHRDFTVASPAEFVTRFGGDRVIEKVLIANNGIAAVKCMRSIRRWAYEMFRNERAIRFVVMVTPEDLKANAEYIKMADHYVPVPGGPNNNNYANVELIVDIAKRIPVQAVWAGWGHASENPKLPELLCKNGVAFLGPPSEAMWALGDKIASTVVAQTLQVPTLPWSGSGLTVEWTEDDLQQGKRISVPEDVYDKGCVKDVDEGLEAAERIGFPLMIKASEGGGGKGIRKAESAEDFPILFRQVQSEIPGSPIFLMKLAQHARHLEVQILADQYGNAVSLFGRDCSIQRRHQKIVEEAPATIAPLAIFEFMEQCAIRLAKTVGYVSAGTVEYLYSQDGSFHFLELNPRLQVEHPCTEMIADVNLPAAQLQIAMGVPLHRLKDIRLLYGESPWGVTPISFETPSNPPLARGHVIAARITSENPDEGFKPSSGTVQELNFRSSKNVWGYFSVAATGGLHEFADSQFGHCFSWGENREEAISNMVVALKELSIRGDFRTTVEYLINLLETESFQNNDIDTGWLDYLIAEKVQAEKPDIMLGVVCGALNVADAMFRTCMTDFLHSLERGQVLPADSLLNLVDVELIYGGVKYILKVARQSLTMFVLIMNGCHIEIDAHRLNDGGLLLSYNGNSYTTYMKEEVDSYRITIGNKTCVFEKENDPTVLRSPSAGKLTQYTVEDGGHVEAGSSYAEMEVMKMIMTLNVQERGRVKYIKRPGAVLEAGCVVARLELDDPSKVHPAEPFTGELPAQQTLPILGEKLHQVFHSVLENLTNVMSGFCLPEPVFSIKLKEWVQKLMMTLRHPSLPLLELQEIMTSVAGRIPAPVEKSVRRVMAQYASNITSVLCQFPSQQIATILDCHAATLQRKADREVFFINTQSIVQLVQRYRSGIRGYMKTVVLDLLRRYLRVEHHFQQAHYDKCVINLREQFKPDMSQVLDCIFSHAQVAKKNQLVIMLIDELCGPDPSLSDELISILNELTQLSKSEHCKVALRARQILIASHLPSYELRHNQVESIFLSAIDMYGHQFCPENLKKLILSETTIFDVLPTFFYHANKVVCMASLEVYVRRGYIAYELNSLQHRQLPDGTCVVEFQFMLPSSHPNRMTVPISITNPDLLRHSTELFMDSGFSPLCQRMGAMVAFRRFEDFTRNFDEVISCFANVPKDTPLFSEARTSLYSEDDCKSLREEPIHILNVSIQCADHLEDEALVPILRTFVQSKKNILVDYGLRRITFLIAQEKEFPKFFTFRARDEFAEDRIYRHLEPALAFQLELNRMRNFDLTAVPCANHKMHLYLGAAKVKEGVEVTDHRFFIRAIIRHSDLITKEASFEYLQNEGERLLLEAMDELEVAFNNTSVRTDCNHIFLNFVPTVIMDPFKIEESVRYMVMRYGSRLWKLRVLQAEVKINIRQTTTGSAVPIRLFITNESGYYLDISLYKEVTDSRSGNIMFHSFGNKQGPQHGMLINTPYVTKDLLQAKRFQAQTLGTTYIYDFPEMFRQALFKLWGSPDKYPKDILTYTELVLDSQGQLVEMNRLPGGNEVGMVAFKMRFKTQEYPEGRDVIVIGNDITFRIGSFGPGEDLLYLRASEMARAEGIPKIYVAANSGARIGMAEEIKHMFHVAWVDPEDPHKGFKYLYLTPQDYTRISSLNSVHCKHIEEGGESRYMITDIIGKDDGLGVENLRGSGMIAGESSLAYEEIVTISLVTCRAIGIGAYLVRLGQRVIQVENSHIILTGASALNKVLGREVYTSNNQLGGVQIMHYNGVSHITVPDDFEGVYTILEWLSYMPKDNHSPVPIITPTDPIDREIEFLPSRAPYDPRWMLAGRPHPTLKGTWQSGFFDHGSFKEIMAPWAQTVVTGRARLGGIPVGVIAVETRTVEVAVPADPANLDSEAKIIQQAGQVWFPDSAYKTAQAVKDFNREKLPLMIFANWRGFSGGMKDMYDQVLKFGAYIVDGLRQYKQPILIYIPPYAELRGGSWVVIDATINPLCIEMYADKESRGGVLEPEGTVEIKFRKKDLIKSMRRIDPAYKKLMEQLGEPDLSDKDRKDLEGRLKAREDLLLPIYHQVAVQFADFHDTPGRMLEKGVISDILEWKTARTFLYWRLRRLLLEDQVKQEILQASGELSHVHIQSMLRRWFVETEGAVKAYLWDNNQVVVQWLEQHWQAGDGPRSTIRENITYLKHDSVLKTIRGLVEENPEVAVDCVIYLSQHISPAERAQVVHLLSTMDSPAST

Row | IC50 [1] [nM] | IC50 [2] [nM] | MIC [3] | MIC [3, 8] [µg/mL] | MIC [4] | MIC [4, 9] [µg/mL] | MIC [5] | MIC [5, 10] [µg/mL] | anti-fungal activity MICs [7] | Compound | thermal melting point change [6]
1 | < 100 | < 100 | >64 µg/mL | > 64 | >64 µg/mL | > 64 | >64 µg/mL | > 64 | – | Cc1c(-c2ncco2)sc2c1c(=O)n(C(C)(C)C(=O)O)c(=O)n2C[C@H](O[C@H]1CC[C@H](O)CC1)c1ccccc1 [I-165, 2-[1-[(2R)-2-[(4-hydroxycyclohexyl)oxy]-2-phenylethyl]-5-methyl-6-(1,3-oxazol-2-yl)-2,4-dioxo-1H,2H,3H,4H-thieno[2,3-d]pyrimidin-3-yl]-2-methylpropanoic acid] | –
2 | < 100 | < 100 | >64 µg/mL | > 64 | >64 µg/mL | > 64 | >64 µg/mL | > 64 | – | Cc1c(-c2ncco2)sc2c1c(=O)n(C(C)(C)C(=O)O)c(=O)n2C[C@H](Oc1ccc(-n2ccnc2)cc1)c1ccccc1 [I-160, 2-[1-[(2R)-2-[4-(1H-imidazol-1-yl)phenoxy]-2-phenylethyl]-5-methyl-6-(1,3-oxazol-2-yl)-2,4-dioxo-1H,2H,3H,4H-thieno[2,3-d]pyrimidin-3-yl]-2-methylpropanoic acid] | –
3 | < 100 | < 100 | 8 µg/mL (≈ 14.4 µM) | 8 (≈ 14.4 µM) | 4 µg/mL (≈ 7.21 µM) | 8 (≈ 14.4 µM) | 2 µg/mL (≈ 3.61 µM) | 2 (≈ 3.61 µM) | low ug/mL range | CCNC(=O)C(C)(C)n1c(=O)c2c(C)c(-c3ncco3)sc2n(C[C@H](OC(C)C)c2ccccc2OC)c1=O [I-236, N-ethyl-2-[1-[(2R)-2-(2-methoxyphenyl)-2-(propan-2-yloxy)ethyl]-5-methyl-6-(1,3-oxazol-2-yl)-2,4-dioxo-1H,2H,3H,4H-thieno[2,3-d]pyrimidin-3-yl]-2-methylpropanamide] | –
4 | < 100 | < 1000 | >64 µg/mL | > 64 | >64 µg/mL | > 64 | >64 µg/mL | > 64 | – | Cc1c(-c2ncco2)sc2c1c(=O)n(C(C)(C)C(=O)O)c(=O)n2C[C@H](OC1CCOCC1)c1ccccc1 [I-162, 2-methyl-2-[5-methyl-1-[(2R)-2-(oxan-4-yloxy)-2-phenylethyl]-6-(1,3-oxazol-2-yl)-2,4-dioxo-1H,2H,3H,4H-thieno[2,3-d]pyrimidin-3-yl]propanoic acid] | –
5 | < 100 | < 100 | 8 µg/mL (≈ 13.4 µM) | 8 (≈ 13.4 µM) | 8 µg/mL (≈ 13.4 µM) | 8 (≈ 13.4 µM) | 8 µg/mL (≈ 13.4 µM) | 8 (≈ 13.4 µM) | low ug/mL range | COc1ccccc1[C@H](Cn1c(=O)n(C(C)(C)C(=O)N2CCOCC2)c(=O)c2c(C)c(-c3ncco3)sc21)OC(C)C [I-235, 1-[(2R)-2-(2-methoxyphenyl)-2-(propan-2-yloxy)ethyl]-5-methyl-3-[2-methyl-1-(morpholin-4-yl)-1-oxopropan-2-yl]-6-(1,3-oxazol-2-yl)-1H,2H,3H,4H-thieno[2,3-d]pyrimidine-2,4-dione] | –
6 | < 100 | < 100 | – | – | – | – | – | – | – | COc1ccccc1[C@H](Cn1c(=O)n(C(C)(C)C(=O)NC(C)C)c(=O)c2c(C)c(-c3ncco3)sc21)OC(C)C [I-242, 2-[1-[(2R)-2-(2-methoxyphenyl)-2-(propan-2-yloxy)ethyl]-5-methyl-6-(1,3-oxazol-2-yl)-2,4-dioxo-1H,2H,3H,4H-thieno[2,3-d]pyrimidin-3-yl]-2-methyl-N-(propan-2-yl)propanamide] | –
7 | < 100 | < 100 | – | – | – | – | – | – | – | Cc1c(-c2ncco2)sc2c1c(=O)n(C(C)(C)C(=O)O)c(=O)n2C[C@H](OC1CCOCC1)c1ccccc1OC(C)C [I-291, 2-methyl-2-[5-methyl-1-[(2R)-2-(oxan-4-yloxy)-2-[2-(propan-2-yloxy)phenyl]ethyl]-6-(1,3-oxazol-2-yl)-2,4-dioxo-1H,2H,3H,4H-thieno[2,3-d]pyrimidin-3-yl]propanoic acid] | –

Second part, the compound before the results:

Row | Compound | IC50 [1] [nM] | IC50 [2] [nM] | MIC [3] | MIC [3, 8] [µg/mL] | MIC [4] | MIC [4, 9] [µg/mL] | MIC [5] | MIC [5, 10] [µg/mL] | anti-fungal activity MICs [7] | thermal melting point change [6]
8 | CCOC(=O)c1sc2c(c1C)c(=O)n(CC(=O)O)c(=O)n2CC(OC(C)C)c1ccccc1 (stereo in doubt) [I-97, (R)-2-(6-(ethoxycarbonyl)-1-(2-isopropoxy-2-phenylethyl)-5-methyl-2,4-dioxo-1,2-dihydrothieno[2,3-d]pyrimidin-3(4H)-yl)acetic acid] | < 100 | < 1000 | – | – | – | – | – | – | – | more than 14 ′C
9 | OC(Cn1cncn1)(Cn1cncn1)c1ccc(F)cc1F [Fluc., fluconazole, reference compound] | – | – | 1 µg/mL and 2 µg/mL | 1 (≈ 3.27 µM) | 32 ug/mL (2×) and 2 ug/mL | – | 2 µg/mL and 4 µg/mL | 2 (≈ 6.53 µM) | – | –
10 | COc1ccccc1[C@H](Cn1c(=O)n(C(C)(C)C(=O)O)c(=O)c2c(C)c(-c3ncco3)sc21)OC(C)C [I-159, 2-[1-[(2R)-2-(2-methoxyphenyl)-2-(propan-2-yloxy)ethyl]-5-methyl-6-(1,3-oxazol-2-yl)-2,4-dioxo-1H,2H,3H,4H-thieno[2,3-d]pyrimidin-3-yl]-2-methylpropanoic acid] | – | < 1000 | 8 µg/mL (≈ 15.2 µM) | 8 (≈ 15.2 µM) | 16 µg/mL and 32 µg/mL | 16 (≈ 30.3 µM) | >64 µg/mL | > 64 | low ug/mL range | –
11 | COc1ccccc1[C@H](Cn1c(=O)n(C(C)(C)C(N)=O)c(=O)c2c(C)c(-c3ncco3)sc21)OC1CCOCC1 [I-246, 2-[1-[(2R)-2-(2-methoxyphenyl)-2-(oxan-4-yloxy)ethyl]-5-methyl-6-(1,3-oxazol-2-yl)-2,4-dioxo-1H,2H,3H,4H-thieno[2,3-d]pyrimidin-3-yl]-2-methylpropanamide] | – | – | 4 µg/mL (≈ 7.03 µM) | 4 (≈ 7.03 µM) | 16 µg/mL (≈ 28.1 µM) | 16 (≈ 28.1 µM) | 4 µg/mL (≈ 7.03 µM) | 4 (≈ 7.03 µM) | low ug/mL range | –
12 | C[C@@H]1[C@H](O)[C@@H](C)/C=C/C=C/C=C/C=C/C=C/C=C/C=C/[C@H](O[C@@H]2O[C@H](C)[C@@H](O)[C@H](N)[C@@H]2O)C[C@@H]2O[C@](O)(C[C@@H](O)C[C@@H](O)[C@H](O)CC[C@@H](O)C[C@@H](O)CC(=O)O[C@H]1C)C[C@H](O)[C@H]2C(=O)O [Amph. B, amphotericin B, reference compound] | – | – | 0.5 ug/mL (2×) and 1 ug/mL | – | 1 µg/mL (≈ 1.08 µM) | – | 1 µg/mL (≈ 1.08 µM) | – | – | –
13 | CCOC(=O)c1sc2c(c1C)c(=O)n(CCCO)c(=O)n2CCc1ccccc1 [I-19, ethyl 3-(3-hydroxypropyl)-5-methyl-2,4-dioxo-1-(2-phenylethyl)-1H,2H,3H,4H-thieno[2,3-d]pyrimidine-6-carboxylate] | < 5000 | 5000 to 20000 | – | – | – | – | – | – | – | –
